Test results reported in patent US5585352A, “Method of treating septic shock using thymosin-α 1” (The George Washington University Medical Center, priority 1994, dated 1996).
No end group written: not given here.

Assays:
endotoxic mice = assay: Survival of Swiss Webster mice following lethal endotoxin dose and Tα1; assay type: in vivo
Description: (§1) Swiss-Webster mice 4-6 weeks of age (20-25 g) were divided into 2 groups: endotoxic mice (endotoxin 60 mg/kg i.p. in acute treatment) and endotoxic mice treated with 3 injections of 100 μg Tα1 (5 minutes, 2 and 4 hours post administration of the endotoxin).
Using the same materials and methods as in example 1, the time and dose-dependency of the protective effect of Tα1 on endotoxin lethality were studied.

malonyldialdehyde [1] = assay: Blood hydroperoxide (malonyldialdehyde) levels in mice treated with lethal doses of endotoxin; assay type: in vivo, Swiss-Webster mice
Description: as §1
*Whole blood samples (0.5 ml) were obtained by tail bleds 1 hour after
endotoxin administration

glutathione (RBC GSH) [2] = assay: Erythrocyte glutathione levels in mice treated with lethal doses of endotoxin; assay type: in vivo, Swiss-Webster mice
Description: as §1
*Total erythrocyte glutathione, 98% of which is in the reduced form (GSH)
was determined by the enzymatic "cyclic method."-

[3] = tested on: Cerebellar cortex cyclic GMP; assay: cGMP cerebellar levels in mice treated with lethal doses of endotoxin; assay type: in vivo, Swiss-Webster mice
Description: as §1

TNF-α = assay: Serum TNF-α levels in mice treated with lethal doses of endotoxin; assay type: in vivo, Swiss-Webster mice
Description: as §1
(§2) *Mice were pretreated with SOD (super oxide dismatase), 30 minutes before
(§3) endotoxin administration XX blood for determined of TNFα and
(§4) IL1α levels was collected 1 hr after endotoxin administration.
(§5) Using the same methods and materials as in examples 1 and 2, the effect which Tα1 has on blood levels of IL-1α, TNF-α, PAG, Txβ2 and 6-keto-PGF1 α, which are pathological mediators of endotoxin induced lethality, was studied.

IL-1α = assay: Serum IL-1α levels in mice treated with lethal doses of endotoxin; assay type: in vivo, Swiss-Webster mice
Description: as §1, §2, §3, §4, §5

PAF = PAF blood levels in mice after lethal dose of endotoxin; assay type: in vivo, Swiss-Webster mice
Description: as §1, §5

Txβ2 = Txβ2 plasma levels in mice after lethal dose of endotoxin; assay type: in vivo, Swiss-Webster mice
Description: as §1, §5

6-keto-PGF1α = 6-keto-PGF1α plasma levels in mice after lethal dose of endotoxin; assay type: in vivo, Swiss-Webster mice
Description: as §1, §5

Rats with Septic Shock = assay: Survival in septic shock model in rats (peritonitis by cecal ligation and puncture); assay type: in vivo, Sprague-Dawley rats; conditions: for Survival of Sprague-Dawley rats, 48 hr / Survival of Sprague-Dawley rats, 72 hr / Survival of Sprague-Dawley rats, 24 hr: rats with peritonitis, both groups got antibiotic (gentamicin sulfate, 1 mg/rat), 10 at 0 hr; for Survival of Sprague-Dawley rats, 48 hr / Survival of Sprague-Dawley rats, 72 hr: thymosin α1 1 mg/rat × 3; for Survival of Sprague-Dawley rats, 24 hr: thymosin α1 1 mg/rat × 3 at 0, 2 and 4 hr post induction; for Number of Rats Alive, 24 h / Number of Rats Alive, 48 h / Number of Rats Alive, 72 h: Rats with Septic Shock + Tα1 1 mg/rat × 3, 10 alive at 0 h
Source text: (§6) Using a septic shock model in rats (Sprague-Dawley, male, 200-225 g each), the effect of thymosin α1 alone and together with antibiotics was studied. Peritonitis was induced in rats in the following way. A 1-cm incision was made into the peritoneal which exposed the cecum. A tight ligature was placed around the cecum with 4-0 suture distal to the insertion of the small bowel, forming an area of devitalized tissue while maintaining bowel continuity. A puncture wound was made with 16-gauge needle into the anti-mesenteric surface of the cecum and a small amount of fecal contents was expressed through the wound. The cecum was replaced into the peritoneal cavity, and the anterior peritoneal wall and skin were closed with surgical staples. Each animal was given a bolus of normal saline (15 ml/kg) for hydration and allowed to recover overnight.
*gentamicin sulfate, 1 mg/rat
(§7) **At 0 hr, 2 hr, and 4 hr post induction of peritonitis

TNFα = TNFα levels in a septic shock model in rat; assay type: in vivo, Sprague-Dawley rats; conditions: Rats with Septic Shock + Tα1 1 mg/rat × 3
Source text: as §6, §7

IL1 α = assay: IL1α levels in a septic shock model in rat; assay type: in vivo, Sprague-Dawley rats; conditions: Rats with Septic Shock + Tα1 1 mg/rat × 3
Source text: as §6, §7

malonyldialdehyde [4] = assay: Lipid peroxidation (blood malonyldialdehyde) in a septic shock model in rat; assay type: in vivo, Sprague-Dawley rats; conditions: Rats with Septic + Tα1 1 mg/rat × 3
Source text: as §6, §7

glutathione (RBC GSH) [5] = assay: Glutathione levels in a rat septic shock model; assay type: in vivo, Sprague-Dawley rats; conditions: Rats with Septic Shock + Tα1 mg/rat × 3
Source text: as §6, §7

6-keto-PGF1 = 6-keto-PGF1 levels in a septic shock model in rat; assay type: in vivo, Sprague-Dawley rats; conditions: Rats with Septic Shock + Tα1 1 mg/rat × 3
Source text: as §6, §7

T × β2 = assay: Txβ2 levels in a septic shock model in rat; assay type: in vivo, Sprague-Dawley rats; conditions: Rats with Septic Shock + Tα1 1 mg/rat × 3
Source text: as §6, §7

[6] = tested on: blood free radical levels; assay: Blood free radical levels; assay type: in vivo; conditions: compared with SOD
[7] = Table I, Endotoxin 60 mg/kg + Tα1 100 μg 3×, 7 alive at 0 hrs
[8] = Table II, Endotoxin 60 mg/kg + Tα1 100 μg 3×, 8 alive at 0 hr.
[9] = Table VIII, Tα1 10 μg, 3×, immediately following, 2 and 4 hrs. after endotoxin, 8 alive at 0 hrs
[10] = Table VIII, Tα1 100 μg, 3×, 2, 4 and 6 hrs. after endotoxin, 8 alive at 0 hrs
[11] = Table VIII, Tα1 100 μg, 3×, immediately following, 2 and 4 hrs. after endotoxin, 8 alive at 0 hrs
[12] = during sepsis, species not given
[13] = Table VI, serum, Endotoxin 60 mg/kg + Tα1
[14] = Table VII, serum, pretreatment with SOD 3.3 × 10^4 μ/kg (30 minutes before endotoxin) or Tα1 100 μg/mice, blood 1 hr after endotoxin
[15] = Table XIV, Endotoxin 60 mg/kg + Tα1 100 μg administered immediately following
[16] = after administration of a lethal dose of endotoxin
[17] = Table IX, Endotoxin 60 mg/kg + Tα1 100 μg administered immediately following
[18] = Table X, Endotoxin 60 mg/kg + Tα1 100 μg administered immediately following
[19] = Table XIII, Endotoxin 60 mg/kg + Tα1 100 μg administered immediately following
[20] = Table XI, Endotoxin 60 mg/kg + Tα1 100 μg administered immediately following
[21] = Table XII, Endotoxin 60 mg/kg + Tα1 100 μg administered immediately following
[22] = first of two unlabelled columns
[23] = second of two unlabelled columns

Thymosin α1 (SDAAVDTSSEITTKDLKEKKEVVEEAEN; ends and bridges not checked; UniProt P06454 2-29, looked up) [Tα1, peptide originally derived from the Thymus gland, 28 amino acids; synthetic Tα1 prepared by solid phase peptide synthesis]
Number of Mice Alive, 24 hrs (endotoxic mice; Table I, Endotoxin 60 mg/kg + Tα1 100 μg 3× (5 minutes, 2 and 4 hours post endotoxin), 7 alive at 0 hrs): 7 | Number of Mice Alive, 48 hrs (endotoxic mice; [7]): 7 | Number of Mice Alive, 72 hrs (endotoxic mice; [7]): 7 | Number of Mice Alive, 24 hr. (endotoxic mice; [8]): 8 | Number of Mice Alive, 48 hr. (endotoxic mice; [8]): 8 | Number of Mice Alive, 72 hr. (endotoxic mice; [8]): 8 | Number of Mice Alive, 7 day (endotoxic mice; [8]): 8 | Number of Mice Alive, 14 day (endotoxic mice; [8]): 8 | Number of Mice Alive, 24 hrs (endotoxic mice; Table VIII, Endotoxin 60 mg/kg + Tα1 10 μg, 3×, immediately following, 2 and 4 hrs. after endotoxin, 8 alive at 0 hrs): 8 | Number of Mice Alive, 24 hrs (endotoxic mice; Table VIII, Endotoxin 60 mg/kg + Tα1 100 μg, 3×, 2, 4 and 6 hrs. after endotoxin, 8 alive at 0 hrs): 8 | Number of Mice Alive, 24 hrs (endotoxic mice; Table VIII, Endotoxin 60 mg/kg + Tα1 100 μg, 3×, immediately following, 2 and 4 hrs. after endotoxin, 8 alive at 0 hrs): 8 | Number of Mice Alive, 48 hrs (endotoxic mice; [9]): 5 | Number of Mice Alive, 72 hrs (endotoxic mice; [9]): 5 | Number of Mice Alive, 96 hrs (endotoxic mice; [9]): 5 | Number of Mice Alive, 120 hrs (endotoxic mice; [9]): 5 | Number of Mice Alive, 48 hrs (endotoxic mice; [10]): 8 | Number of Mice Alive, 72 hrs (endotoxic mice; [10]): 8 | Number of Mice Alive, 96 hrs (endotoxic mice; [10]): 8 | Number of Mice Alive, 120 hrs (endotoxic mice; [10]): 8 | Number of Mice Alive, 48 hrs (endotoxic mice; [11]): 8 | Number of Mice Alive, 72 hrs (endotoxic mice; [11]): 8 | Number of Mice Alive, 96 hrs (endotoxic mice; [11]): 8 | Number of Mice Alive, 120 hrs (endotoxic mice; [11]): 8 | survival rate of mice treated with endotoxin (endotoxic mice; Tα1 administered 3 times post administration of endotoxin, Tables I and II): 100% | effective protective dose (endotoxic mice; administered three times, endotoxin lethality in mice): 100 µg | protective effect on endotoxin toxicity (endotoxic mice; given immediately following, 2 and 4 hours after, or 2, 4 and 6 hours after endotoxin treatment): had protective effect on endotoxin toxicity | Blood Levels of malonyldialdehyde (malonyldialdehyde [1]; Endotoxin 60 mg/kg + Tα1 100, whole blood 1 hour after endotoxin administration): 16.9 ± 1.36 nMol MDA | peroxidation of lipids in blood (malonyldialdehyde [1]; [12]): returned to normal or about normal | RBC GSH (glutathione (RBC GSH) [2]; Endotoxin 60 mg/kg + Tα1 100 μg/mouse, total erythrocyte glutathione): 1.12 ± 0.12 μmoles/ml cells | circulating blood levels of glutathione (glutathione (RBC GSH) [2]; [12]): returns circulatory gluthathine leves to normal or about normal | Cerebellar cortex cyclic GMP ([3]; Endotoxin 60 mg/kg i.p. + Tα1 100 μg): 14.6 ± 1.2 pmol per mg/protein | cerebellar cGMP levels ([3]; administration during sepsis): decreases cerebellar cGMP levels | TNF-α, 1 hr (TNF-α; [13]): 638 ± 57 pg/mL | TNF-α, 3 hr (TNF-α; [13]): 426 ± 37 pg/mL | TNF-α, 5 hr (TNF-α; [13]): 297 ± 27 pg/mL | TNF-α (TNF-α; [14]): 285 ± 23.6 pg/mL | TNF-α (serum levels), 1 hr (TNF-α; [15]): 783 pg/mL | TNF-α (serum levels), 3 hr (TNF-α; [15]): 508 pg/mL | TNF-α (serum levels), 5 hr (TNF-α; [15]): 429 pg/mL | TNF-α serum levels (TNF-α; [16]): decreased | IL-1α (serum levels), 1 hr (IL-1α; [17]): 83 ± 7.1 pg/mL | IL-1α (serum levels), 3 hr (IL-1α; [17]): 165 ± 13.7 pg/mL | IL-1 α (IL-1α; [14]): 109 ± 71 pg/mL | IL-1α serum levels (IL-1α; [16]): decreased | PAF (plasma levels), 0.5 hr (PAF; [18]): 48 ± 3 pg/mL | PAF (plasma levels), 1 hr (PAF; [18]): 136 ± 9 pg/mL | PAF (plasma levels), 2 hr (PAF; [18]): 68 ± 4 pg/mL | PAF (plasma levels), 3 hr (PAF; [18]): 32 ± 2 pg/mL | PAF (serum levels), 1 hr (PAF; [19]): 783 pg/mL | PAF (serum levels), 3 hr (PAF; [19]): 508 pg/mL | PAF (serum levels), 5 hr (PAF; [19]): 429 pg/mL | PAF plasma levels (PAF; [16]): decreased | T × β2 (plasma levels), 0.5 hr. (Txβ2; [20]): 910 ± 85 pg/mL | T × β2 (plasma levels), 2 hr (Txβ2; [20]): 530 ± 47 pg/mL | T × β2 (plasma levels), 1 hr (Txβ2; Table XI, Endotoxin 60 mg/kg + Tα1 100 μg administered immediately following, spread 185 printed): 1921 pg/mL | T × β2 (plasma levels), 3 hr (Txβ2; Table XI, Endotoxin 60 mg/kg + Tα1 100 μg administered immediately following, spread 260 printed): 391 pg/mL | Txβ2 plasma levels (Txβ2; [16]): decreased | 6-keto-PGF1α (plasma levels), 0.5 hr. (6-keto-PGF1α; [21]): 224 ± 19 pg/mL | 6-keto-PGF1α (plasma levels), 1 hr (6-keto-PGF1α; [21]): 745 ± 62 pg/mL | 6-keto-PGF1α (plasma levels), 2 hr (6-keto-PGF1α; [21]): 341 ± 33 pg/mL | 6-keto-PGF1α (plasma levels), 3 hr (6-keto-PGF1α; [21]): 205 ± 19 pg/mL | 6-keto-PGF1 α plasma levels (6-keto-PGF1α; [16]): decreased | Survival of Sprague-Dawley rats, 48 hr (Rats with Septic Shock; Table XV): 6 | Survival of Sprague-Dawley rats, 72 hr (Rats with Septic Shock; Table XV): 6 | Survival of Sprague-Dawley rats, 24 hr (Rats with Septic Shock; Table XV): 8 | survival of rats (Rats with Septic Shock; Table XV, with antibiotic): increased the survival of rats | Number of Rats Alive, 24 h (Rats with Septic Shock; Table XX): 9 | Number of Rats Alive, 48 h (Rats with Septic Shock; Table XX): 9 | Number of Rats Alive, 72 h (Rats with Septic Shock; Table XX): 5 | Number of Rats Alive, 24 h (Rats with Septic Shock; Table XXI): 8 | Number of Rats Alive, 48 h (Rats with Septic Shock; Table XXI): 7 | Number of Rats Alive, 72 h (Rats with Septic Shock; Table XXI): 3 | survival rate of rats with septic shock (Rats with Septic Shock; Tables XX and XXI): increases the survival rate of rats with septic shock | TNFα (TNFα): 1231 ± 129 pg/mL | IL1 α (IL1 α): 689 ± 53 pg/mL | Blood Levels of malonyldialdehyde (malonyldialdehyde [4]; [22]): 17.1 ± 1.6 nNol MDA | Blood Levels of malonyldialdehyde (malonyldialdehyde [4]; [23]): 21.9 ± 2.3 nNol MDA | RBC GSH (glutathione (RBC GSH) [5]; [22]): 1.29 ± 0.07 μmoles/ml cells | RBC GSH (glutathione (RBC GSH) [5]; [23]): 1.20 ± 0.085 μmoles/ml cells | 6-keto-PGF1 (6-keto-PGF1): 1132 ± 96 pg/mL | T × β2 (T × β2): 2353 ± 197 pg/mL | blood free radical levels [6]: reduce blood free radical levels almost as much as SOD

gentamicin sulfate [antibiotic, reference compound]
Survival of Sprague-Dawley rats, 48 hr (Rats with Septic Shock; Table XV): 1 | Survival of Sprague-Dawley rats, 72 hr (Rats with Septic Shock; Table XV): 0 | Survival of Sprague-Dawley rats, 24 hr (Rats with Septic Shock; Table XV): 1
